ChEMBL document CHEMBL3351443, “Development of 3-hydroxycinnamamide-based HDAC inhibitors with potent in vitro and in vivo anti-tumor activity” (Eur J Med Chem, 2015)
Each block holds one compound with its values, some of them ahead of it.

What was measured:
Histone deacetylase = experiment: Inhibition of HDAC in human HeLa cell extract using Boc-Lys (acetyl)-AMC as substrate incubated for 10 mins prior to substrate addition measured after 30 mins by fluorescence assay; type: protein assay
[1] = Antiproliferative activity against human U266 cells after 48 hrs by MTT assay; type: functional, cell-based; settings: U-266, 48 h
U-937 [2] = experiment: Induction of apoptosis in human U937 cells assessed as early apoptotic cells at 1.5 uM after 24 hrs by annexin-V/propidium iodide staining-based flow cytometry (reference value: 3.81%); type: functional
U-937 [3] = experiment: Induction of apoptosis in human U937 cells assessed as viable cells at 1.5 uM after 24 hrs by annexin-V/propidium iodide staining-based flow cytometry (reference value: 92.47%); type: functional
Histone deacetylase 3 = Histone deacetylase 3 (Homo sapiens, UniProt O15379); experiment: Inhibition of HDAC3 (unknown origin)
Chain of Histone deacetylase 3 (O15379 whole entry): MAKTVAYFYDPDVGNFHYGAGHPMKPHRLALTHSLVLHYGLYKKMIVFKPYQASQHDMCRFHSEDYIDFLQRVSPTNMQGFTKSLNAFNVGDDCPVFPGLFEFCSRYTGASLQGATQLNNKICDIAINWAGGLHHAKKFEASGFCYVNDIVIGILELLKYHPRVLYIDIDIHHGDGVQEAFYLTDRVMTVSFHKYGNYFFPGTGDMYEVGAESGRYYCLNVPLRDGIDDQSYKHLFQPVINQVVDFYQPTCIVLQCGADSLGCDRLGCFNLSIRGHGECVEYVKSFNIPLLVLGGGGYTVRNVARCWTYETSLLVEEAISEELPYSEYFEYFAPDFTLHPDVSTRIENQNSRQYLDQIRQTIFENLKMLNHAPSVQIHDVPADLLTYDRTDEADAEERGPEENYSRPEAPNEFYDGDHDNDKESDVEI

[4] = Antitumor activity against human U937 cells xenografted in athymic nude mouse assessed as tumor growth inhibition at 120 mg/kg/day, po after 16 days; type: functional; settings: U-937, 384 h, read-out: TGI
[5] = Antiproliferative activity against human HL60 cells after 48 hrs by MTT assay; type: functional, cell-based; settings: HL-60, 48 h
HEL = experiment: Antiproliferative activity against human HEL cells after 48 hrs by MTT assay; type: functional, cell-based
[6] = Antiproliferative activity against human HCT116 cells after 48 hrs by MTT assay; type: functional, cell-based; settings: HCT-116, 48 h
Histone deacetylase 2 = Histone deacetylase 2 (Homo sapiens, UniProt Q92769); experiment: Inhibition of HDAC2 (unknown origin)
Chain of Histone deacetylase 2 (Q92769 whole entry): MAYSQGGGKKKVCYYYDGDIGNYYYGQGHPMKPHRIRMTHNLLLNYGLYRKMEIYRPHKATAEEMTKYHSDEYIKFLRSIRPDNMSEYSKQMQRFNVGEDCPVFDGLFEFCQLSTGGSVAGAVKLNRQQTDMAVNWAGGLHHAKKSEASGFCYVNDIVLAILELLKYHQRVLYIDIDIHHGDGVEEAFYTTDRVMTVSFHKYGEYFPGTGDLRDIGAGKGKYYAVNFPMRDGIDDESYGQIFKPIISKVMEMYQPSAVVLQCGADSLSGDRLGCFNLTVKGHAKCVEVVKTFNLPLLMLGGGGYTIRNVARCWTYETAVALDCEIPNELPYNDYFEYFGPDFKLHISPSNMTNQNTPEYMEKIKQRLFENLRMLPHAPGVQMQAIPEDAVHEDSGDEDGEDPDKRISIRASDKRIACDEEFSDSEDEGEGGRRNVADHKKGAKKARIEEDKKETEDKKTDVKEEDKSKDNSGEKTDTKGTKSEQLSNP

U-937 [7] = experiment: Induction of apoptosis in human U937 cells assessed as late apoptotic cells at 1.5 uM after 24 hrs by annexin-V/propidium iodide staining-based flow cytometry (reference value: 2.77%); type: functional
[8] = Antitumor activity against human U937 cells xenografted in athymic nude mouse at 120 mg/kg/day, po after 16 days relative to control; type: functional, U-937
[9] = Antiproliferative activity against human KG1 cells after 48 hrs by MTT assay; type: functional, cell-based; settings: KG-1, 48 h
[10] = biological target: T1, Protein deacetylase HDAC6 (Homo sapiens, UniProt Q9UBN7); experiment: Inhibition of HDAC6 (unknown origin)
T1 sequence (Q9UBN7 whole entry): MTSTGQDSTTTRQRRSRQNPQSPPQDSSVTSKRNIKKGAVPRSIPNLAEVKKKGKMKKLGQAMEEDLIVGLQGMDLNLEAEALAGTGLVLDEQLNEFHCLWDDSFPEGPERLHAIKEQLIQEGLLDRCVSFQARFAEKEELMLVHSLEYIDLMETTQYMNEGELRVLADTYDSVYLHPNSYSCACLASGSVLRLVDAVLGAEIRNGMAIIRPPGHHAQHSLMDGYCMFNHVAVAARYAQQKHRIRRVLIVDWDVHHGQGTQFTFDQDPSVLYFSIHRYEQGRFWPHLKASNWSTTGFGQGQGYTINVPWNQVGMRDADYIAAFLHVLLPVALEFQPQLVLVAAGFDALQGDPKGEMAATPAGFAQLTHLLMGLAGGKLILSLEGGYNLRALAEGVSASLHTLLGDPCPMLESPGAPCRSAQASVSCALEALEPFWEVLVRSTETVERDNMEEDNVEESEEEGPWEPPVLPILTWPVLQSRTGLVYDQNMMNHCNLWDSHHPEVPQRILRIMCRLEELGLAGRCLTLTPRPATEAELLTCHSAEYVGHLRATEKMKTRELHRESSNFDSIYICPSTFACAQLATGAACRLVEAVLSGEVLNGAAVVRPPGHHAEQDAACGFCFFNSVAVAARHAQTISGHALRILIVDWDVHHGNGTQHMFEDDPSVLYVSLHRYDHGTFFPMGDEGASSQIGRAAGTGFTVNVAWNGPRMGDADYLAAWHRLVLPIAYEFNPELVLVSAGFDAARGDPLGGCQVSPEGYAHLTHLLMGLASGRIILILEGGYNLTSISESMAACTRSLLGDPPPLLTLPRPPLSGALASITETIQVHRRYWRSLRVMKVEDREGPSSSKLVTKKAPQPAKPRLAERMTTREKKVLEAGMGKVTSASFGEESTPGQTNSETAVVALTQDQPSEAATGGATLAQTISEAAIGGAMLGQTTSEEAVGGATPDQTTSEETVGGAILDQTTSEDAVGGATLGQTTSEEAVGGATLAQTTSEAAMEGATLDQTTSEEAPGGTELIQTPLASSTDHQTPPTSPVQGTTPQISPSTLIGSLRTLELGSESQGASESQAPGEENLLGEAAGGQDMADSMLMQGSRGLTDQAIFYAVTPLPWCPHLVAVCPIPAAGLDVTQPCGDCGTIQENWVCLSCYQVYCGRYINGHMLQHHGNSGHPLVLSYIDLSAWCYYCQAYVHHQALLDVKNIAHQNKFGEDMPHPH

MDA-MB-231 = experiment: Antiproliferative activity against human MDA-MB-231 cells after 48 hrs by MTT assay; type: functional, cell-based; settings: MDA-MB-231, 48 h
U-937 [11] = experiment: Induction of apoptosis in human U937 cells assessed as apoptotic cells at 1.5 uM after 24 hrs by annexin-V/propidium iodide staining-based flow cytometry; type: functional
A549 = experiment: Antiproliferative activity against human A549 cells after 48 hrs by MTT assay; type: functional, cell-based; settings: A549, 48 h
U-937 [12] = experiment: Induction of apoptosis in human U937 cells assessed as dead cells at 1.5 uM after 24 hrs by annexin-V/propidium iodide staining-based flow cytometry (reference value: 0.95%); type: functional
Mus musculus [13] = experiment: Toxicity in athymic nude mouse xenografted with human U937 cells assessed as toxic sign in spleen at 120 mg/kg/day, po after 16 days; type: organism-based, U-937; set-up: route oral; settings: in vivo, 384 h
K562 = experiment: Antiproliferative activity against human K562 cells after 48 hrs by MTT assay; type: functional, cell-based; settings: K562, 48 h
Histone deacetylase 1 = Histone deacetylase 1 (Homo sapiens, UniProt Q13547); experiment: Inhibition of HDAC1 (unknown origin)
Chain of Histone deacetylase 1 (Q13547 whole entry): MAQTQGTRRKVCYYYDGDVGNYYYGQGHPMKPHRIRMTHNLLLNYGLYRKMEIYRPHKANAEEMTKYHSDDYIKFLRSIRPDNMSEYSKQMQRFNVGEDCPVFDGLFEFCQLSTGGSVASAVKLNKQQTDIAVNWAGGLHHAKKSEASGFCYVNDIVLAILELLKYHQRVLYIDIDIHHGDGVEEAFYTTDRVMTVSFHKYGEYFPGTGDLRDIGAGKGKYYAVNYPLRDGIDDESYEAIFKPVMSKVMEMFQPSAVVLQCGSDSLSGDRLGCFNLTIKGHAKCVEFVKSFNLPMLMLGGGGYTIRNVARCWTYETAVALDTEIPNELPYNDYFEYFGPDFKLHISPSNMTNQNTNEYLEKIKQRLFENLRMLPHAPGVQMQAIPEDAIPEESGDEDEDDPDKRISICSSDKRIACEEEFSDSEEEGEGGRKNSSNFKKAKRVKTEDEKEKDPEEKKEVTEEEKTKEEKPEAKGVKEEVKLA

[14] = Antiproliferative activity against human U937 cells after 48 hrs by MTT assay; type: functional, cell-based; settings: U-937, 48 h
Mus musculus [15] = experiment: Toxicity in athymic nude mouse xenografted with human U937 cells assessed as weight loss at 120 mg/kg/day, po after 16 days; type: organism-based, U-937; set-up: route oral; settings: in vivo, 384 h
MCF7 = experiment: Antiproliferative activity against human MCF7 cells after 48 hrs by MTT assay; type: functional, cell-based; settings: MCF7, 48 h
[16] = Antiproliferative activity against human PC3 cells after 48 hrs by MTT assay; type: functional, cell-based; settings: PC-3, 48 h
Mus musculus [17] = experiment: Toxicity in athymic nude mouse xenografted with human U937 cells assessed as toxic sign in liver at 120 mg/kg/day, po after 16 days; type: organism-based, U-937; set-up: route oral; settings: in vivo, 384 h
Histone deacetylase 8 = biological target: T2, Histone deacetylase 8 (Homo sapiens, UniProt Q9BY41); experiment: Inhibition of HDAC8 (unknown origin)
T2 sequence (Q9BY41 whole entry): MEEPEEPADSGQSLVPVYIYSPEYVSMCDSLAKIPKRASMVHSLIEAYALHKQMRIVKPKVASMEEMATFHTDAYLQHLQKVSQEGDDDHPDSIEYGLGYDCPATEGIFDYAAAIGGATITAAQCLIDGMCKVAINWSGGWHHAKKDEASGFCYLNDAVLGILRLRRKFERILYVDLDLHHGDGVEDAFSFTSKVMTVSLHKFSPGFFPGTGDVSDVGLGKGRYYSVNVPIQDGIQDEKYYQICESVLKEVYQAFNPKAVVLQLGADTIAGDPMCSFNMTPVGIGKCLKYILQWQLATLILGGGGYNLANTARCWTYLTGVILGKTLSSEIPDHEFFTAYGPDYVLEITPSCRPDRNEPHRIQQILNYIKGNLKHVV

Histone deacetylase 11 = biological target: T3, Histone deacetylase 11 (Homo sapiens, UniProt Q96DB2); experiment: Inhibition of HDAC11 (unknown origin)
T3 sequence (Q96DB2 whole entry): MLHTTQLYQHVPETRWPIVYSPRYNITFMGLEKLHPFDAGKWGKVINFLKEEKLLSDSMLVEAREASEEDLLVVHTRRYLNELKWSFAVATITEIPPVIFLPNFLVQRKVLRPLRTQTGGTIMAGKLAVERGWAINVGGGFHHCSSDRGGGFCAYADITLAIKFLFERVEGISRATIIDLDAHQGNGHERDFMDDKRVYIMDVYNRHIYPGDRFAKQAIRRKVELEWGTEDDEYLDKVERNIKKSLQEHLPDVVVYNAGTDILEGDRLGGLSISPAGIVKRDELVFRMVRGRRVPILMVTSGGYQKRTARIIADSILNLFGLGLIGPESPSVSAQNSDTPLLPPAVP

Histone deacetylase 4 = Histone deacetylase 4 (Homo sapiens, UniProt P56524); experiment: Inhibition of HDAC4 (unknown origin)
Chain of Histone deacetylase 4 (P56524 whole entry): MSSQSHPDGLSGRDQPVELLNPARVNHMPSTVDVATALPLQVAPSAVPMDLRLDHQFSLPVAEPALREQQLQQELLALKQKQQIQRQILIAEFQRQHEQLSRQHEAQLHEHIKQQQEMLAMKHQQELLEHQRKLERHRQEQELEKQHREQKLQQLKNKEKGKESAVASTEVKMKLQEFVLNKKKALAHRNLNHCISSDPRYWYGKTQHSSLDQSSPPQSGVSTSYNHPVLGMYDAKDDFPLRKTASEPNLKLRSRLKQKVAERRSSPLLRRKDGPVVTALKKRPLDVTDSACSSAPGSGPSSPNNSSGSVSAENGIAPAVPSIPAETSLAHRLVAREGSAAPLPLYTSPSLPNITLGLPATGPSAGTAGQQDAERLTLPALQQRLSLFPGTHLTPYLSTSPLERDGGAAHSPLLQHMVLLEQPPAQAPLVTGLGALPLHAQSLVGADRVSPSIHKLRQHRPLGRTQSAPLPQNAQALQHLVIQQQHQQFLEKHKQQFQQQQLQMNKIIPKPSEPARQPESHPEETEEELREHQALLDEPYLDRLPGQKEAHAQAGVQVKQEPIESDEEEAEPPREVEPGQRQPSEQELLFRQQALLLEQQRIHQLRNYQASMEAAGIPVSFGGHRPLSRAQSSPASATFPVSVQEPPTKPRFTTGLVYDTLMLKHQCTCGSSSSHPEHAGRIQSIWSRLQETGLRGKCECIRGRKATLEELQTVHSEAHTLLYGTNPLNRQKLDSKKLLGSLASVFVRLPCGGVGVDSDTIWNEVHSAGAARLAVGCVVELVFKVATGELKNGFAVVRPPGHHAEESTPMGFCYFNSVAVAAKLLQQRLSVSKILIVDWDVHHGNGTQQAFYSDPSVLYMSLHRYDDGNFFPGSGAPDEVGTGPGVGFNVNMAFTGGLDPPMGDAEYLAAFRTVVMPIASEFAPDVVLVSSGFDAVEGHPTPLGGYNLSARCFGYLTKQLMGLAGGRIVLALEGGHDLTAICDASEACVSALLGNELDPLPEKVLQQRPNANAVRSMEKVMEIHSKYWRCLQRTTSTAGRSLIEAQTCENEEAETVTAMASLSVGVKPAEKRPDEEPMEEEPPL

Structure (SMILES): O=C(/C=C/c1cccc(OC[C@H](Cc2c[nH]c3ccccc23)NC(=O)c2ccc(Cl)cc2)c1)NO
IC50 [1]: 1740 nM

Structure (SMILES): O=C(/C=C/c1cccc(OC[C@H](Cc2c[nH]c3ccccc23)NC(=O)CCc2ccccc2)c1)NO
IC50 (Histone deacetylase): 464.5 nM | IC50 [1]: 6170 nM

Structure (SMILES): O=C(/C=C/c1cccc(OC[C@H](Cc2c[nH]c3ccccc23)NC(=O)c2ccc(Br)cc2)c1)NO
IC50 (Histone deacetylase): 692.4 nM | IC50 [1]: 1390 nM

Structure (SMILES): COc1ccc(C(=O)N[C@H](COc2cccc(/C=C/C(=O)NO)c2)Cc2c[nH]c3ccccc23)cc1
Activity (U-937 [2]): 11.54% | viability at 1.5 µM (U-937 [3]; Homo sapiens, U-937, 24 h, read-out: Activity): 57.5% | IC50 (Histone deacetylase 3): 224 nM | inhibition in vivo at 120 mg/kg/day [4]: 42.7% | IC50 (Histone deacetylase): 191.2 nM | IC50 [5]: 3700 nM | IC50 [1]: 410 nM | IC50 (HEL): 380 nM | IC50 [6]: 2310 nM | IC50 (Histone deacetylase 2): 865 nM | Activity (U-937 [7]): 23.99% | T/C [8]: 56.4% | IC50 [9]: 1080 nM | IC50 [10]: 93.8 nM | IC50 (MDA-MB-231): 970 nM | Activity (U-937 [11]): 35.53% | IC50 (A549): 4500 nM | Activity (U-937 [12]): 6.92% | Activity (Mus musculus [13]): Non-toxic | IC50 (K562): 3460 nM | IC50 (Histone deacetylase 1): 219 nM | IC50 [14]: 360 nM | Activity (Mus musculus [15]): Non-toxic | IC50 (MCF7): 2490 nM | IC50 [16]: 3880 nM | Activity (Mus musculus [17]): Non-toxic

Structure (SMILES): Cc1ccc(C(=O)N[C@H](COc2cccc(/C=C/C(=O)NO)c2)Cc2c[nH]c3ccccc23)cc1
IC50 (Histone deacetylase): 218.7 nM | IC50 [1]: 390 nM

Structure (SMILES): COc1ccccc1C(=O)N[C@H](COc1cccc(/C=C/C(=O)NO)c1)Cc1c[nH]c2ccccc12
IC50 (Histone deacetylase 3): 28.7 nM | IC50 (Histone deacetylase): 38.5 nM | IC50 [1]: 1430 nM | IC50 (Histone deacetylase 2): 64.8 nM | IC50 (Histone deacetylase 8): 87.4 nM | IC50 [10]: 23.9 nM | IC50 (Histone deacetylase 11): 52.7 nM | IC50 (Histone deacetylase 4): 440 nM | IC50 (Histone deacetylase 1): 33.2 nM

Structure (SMILES): O=C(CCCCCCC(=O)Nc1ccccc1)NO [VORINOSTAT]
Activity (U-937 [2]): 6.65% | Activity (U-937 [3]): 72.62% | Activity (U-937 [7]): 14.57% | T/C [8]: 71.7% | Activity (U-937 [11]): 21.22% | Activity (U-937 [12]): 6.16% | IC50 [16]: 3570 nM

Further lines, with some results ahead:

IC50 (Histone deacetylase): 421.4 nM
Structure (SMILES): O=C(/C=C/c1cccc(OC[C@H](Cc2c[nH]c3ccccc23)NC(=O)c2ccccc2)c1)NO
IC50 [1]: 1230 nM

IC50 (Histone deacetylase): 917.4 nM
Structure (SMILES): CC(C)(C)OC(=O)N[C@H](COc1cccc(/C=C/C(=O)NO)c1)Cc1c[nH]c2ccccc12
IC50 [1]: 4180 nM

IC50 (Histone deacetylase): 886.4 nM
Structure (SMILES): CC(C)(C)OC(=O)NCC(=O)N[C@H](COc1cccc(/C=C/C(=O)NO)c1)Cc1c[nH]c2ccccc12
IC50 [1]: 8950 nM

IC50 (Histone deacetylase): 861.5 nM
Structure (SMILES): CC(NC(=O)OC(C)(C)C)C(=O)N[C@H](COc1cccc(/C=C/C(=O)NO)c1)Cc1c[nH]c2ccccc12 (stereo partly specified)
IC50 [1]: 6560 nM

IC50 (Histone deacetylase): 447.7 nM
Structure (SMILES): O=C(/C=C/c1cccc(OC[C@H](Cc2c[nH]c3ccccc23)NC(=O)Cc2ccccc2)c1)NO
IC50 [1]: 6570 nM

IC50 (Histone deacetylase): 498.6 nM
Structure (SMILES): O=C(/C=C/c1cccc(OC[C@H](Cc2c[nH]c3ccccc23)NC(=O)CCCc2ccccc2)c1)NO
IC50 [1]: 3620 nM

IC50 (Histone deacetylase): 81.9 nM
Structure (SMILES): O=C(/C=C/c1cccc(OC[C@H](Cc2c[nH]c3ccccc23)NC(=O)c2ccccc2Cl)c1)NO
IC50 [1]: 740 nM

IC50 (Histone deacetylase): 357.9 nM
Structure (SMILES): O=C(/C=C/c1cccc(OC[C@H](Cc2c[nH]c3ccccc23)NC(=O)c2cccc(Cl)c2)c1)NO
IC50 [1]: 3080 nM

IC50 (Histone deacetylase): 258.9 nM
Structure (SMILES): O=C(/C=C/c1cccc(OC[C@H](Cc2c[nH]c3ccccc23)NC(=O)c2ccc(Cl)cc2Cl)c1)NO
IC50 [1]: 2500 nM

IC50 (Histone deacetylase): 779 nM
Structure (SMILES): O=C(/C=C/c1cccc(OC[C@H](Cc2c[nH]c3ccccc23)NC(=O)c2cc(Cl)cc(Cl)c2)c1)NO
IC50 [1]: 3030 nM

IC50 (Histone deacetylase): 67.4 nM
Structure (SMILES): COc1cccc(C(=O)N[C@H](COc2cccc(/C=C/C(=O)NO)c2)Cc2c[nH]c3ccccc23)c1
IC50 [1]: 3090 nM
